# Experimental data from PubChem BioAssay (NCI).
# Several values for one entry are separate records, joined by “and”; a condition that tells them apart may be missing. Equal entries are not always repeated.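 Following 48 hours of exposure in 96-well plates, responses at five concentrations were used to interpolate endpoints linearly. The concentration for 50% growth inhibition is given as GI50. TGI: concentration producing complete growth inhibition.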
# Key:
# Experiment in all cases: growth of human tumour cells (NCI), 48 h
# A498 renal = tested on: A498 renal
# ACHN renal = tested on: ACHN renal
# BT-549 breast = tested on: BT-549 breast
# COLO 205 colon = tested on: COLO 205 colon
# HCT-15 colon = tested on: HCT-15 colon
# PC-3 prostate = tested on: PC-3 prostate
# RXF 393 renal = tested on: RXF 393 renal
# SF-539 CNS = tested on: SF-539 CNS
# SNB-19 CNS = tested on: SNB-19 CNS
# UACC-257 melanoma = tested on: UACC-257 melanoma
SMILES,GI50 (A498 renal) [µM],TGI (A498 renal) [µM],GI50 (ACHN renal),TGI (ACHN renal) [µM],GI50 (BT-549 breast),TGI (BT-549 breast),GI50 (COLO 205 colon),TGI (COLO 205 colon),GI50 (HCT-15 colon),TGI (HCT-15 colon),GI50 (PC-3 prostate),TGI (PC-3 prostate),GI50 (RXF 393 renal),TGI (RXF 393 renal),GI50 (SF-539 CNS),TGI (SF-539 CNS),GI50 (SNB-19 CNS),TGI (SNB-19 CNS),GI50 (UACC-257 melanoma),TGI (UACC-257 melanoma)
COC(=O)c1c(-c2cccs2)oc(-c2cccs2)c1C(=O)OC,31.8,94.4,> 70.2 µM,> 100,52 µM,> 100 µM,26.7 µM,> 86.3 µM,27.5 µM,> 100 µM,26.3 µM,> 100 µM,31 µM,> 100 µM,84.4 µM,> 100 µM,> 100 µM,> 100 µM,40.3 µM,> 95.3 µM
CC(=O)OC12C=C(C)C(C(C)C1)C1C(=O)N(CCN3CCCCC3)C(=O)C12 (stereo not given),> 50,> 50,> 50 µM,> 50,> 50 µM,> 50 µM,> 50 µM,> 50 µM,> 50 µM,> 50 µM,> 50 µM,> 50 µM,19.9 µM,> 50 µM,> 50 µM,> 50 µM,> 50 µM,> 50 µM,> 50 µM,> 50 µM
C1CN(c2nnc(N3CCC3)nn2)C1,,> 100,,> 92.1,,> 100 µM,,> 92.4 µM,,> 100 µM,,> 60 µM,,> 74.5 µM,,77.6 µM,,> 79.5 µM,,49.4 µM
COc1cccc2cc(N(C)c3nc(C)nc4c3CCC4)ccc12,< 0.01,14.7,< 0.01 µM,13.7,< 0.01 µM,11 µM,< 0.01 µM,< 0.01 µM,< 0.01 µM,6.41 µM,< 0.01 µM,16.4 µM,< 0.01 µM,23.7 µM,< 0.01 µM,< 0.01 µM,< 0.01 µM,21.6 µM,2.57 µM,20.6 µM
CCN(CC)CCCC(C)Nc1cc(-c2cccc(OC(F)(F)F)c2)nc2ccc(N3CCCC3)cc12 (stereo not given),0.0301,3.03,0.0744 µM,39,0.201 µM,3.39 µM,0.213 µM,1.51 µM,0.0415 µM,12.4 µM,0.28 µM,> 49.5 µM,0.0357 µM,89.1 µM,0.0382 µM,0.508 µM,0.118 µM,> 100 µM,0.97 µM,47.7 µM
O=C(NCC(F)(F)F)Nc1cccc(-c2cnc3cc(-c4ccc(F)cc4)ccn23)c1,0.29,2.47,2.53 µM,> 52.1,1.31 µM,> 61 µM,0.531 µM,> 26.7 µM,0.614 µM,> 74 µM,2.22 µM,> 100 µM,1.13 µM,6.36 µM,0.522 µM,3.5 µM,2.26 µM,> 100 µM,14.2 µM,65.5 µM
COc1ccc(-c2nc(-c3nc4ccc(C)cc4[nH]3)cc3c2[nH]c2ccccc23)cc1,2.36,> 100,3.05 µM,> 100,6.88 µM,> 100 µM,2.83 µM,8.21 µM,3.2 µM,> 100 µM,2.74 µM,> 100 µM,3.82 µM,> 100 µM,3.92 µM,> 100 µM,7.28 µM,> 100 µM,3.94 µM,> 100 µM
O=C1/C(=C/c2ccc(F)cc2)CN(C(=O)CCN2CCC(=NO)CC2)C/C1=C\c1ccc(F)cc1,1.31,2.63,1.08 µM,2.86,1.58 µM,3.21 µM,1.94 µM,5.5 µM,0.691 µM,2.6 µM,0.855 µM,2.97 µM,1.64 µM,3.18 µM,1.95 µM,4.07 µM,1.53 µM,4.1 µM,2.4 µM,7.05 µM
COc1ccc(-c2cncn2-c2cc(OC)c(OC)c(OC)c2)cc1,0.103,17.5,0.366 µM,49.4,0.249 µM,52 µM,0.103 µM,9.7 µM,0.17 µM,> 91.9 µM,0.552 µM,> 40 µM,0.448 µM,21.3 µM,0.0671 µM,0.46 µM,0.349 µM,> 100 µM,6.73 µM,> 86.9 µM
CSc1nc2nc3c(nc2c(=O)n1C)C(=O)c1ccccc1C3=O,0.186,0.768,0.299 µM,1.04,0.159 µM,0.305 µM,0.173 µM,0.357 µM,0.164 µM,0.429 µM,0.269 µM,1.46 µM,0.253 µM,0.819 µM,0.196 µM,0.384 µM,0.304 µM,1.28 µM,0.131 µM,0.265 µM
O=C(O)/C(Cc1cn[nH]n1)=N\O,,> 100,,> 100,,> 100 µM,,> 100 µM,,> 100 µM,,> 100 µM,,> 100 µM,,> 100 µM,,> 100 µM,,> 100 µM
O=C(CN(/C=C/C(=O)C(F)(F)F)c1ccc(Cl)cc1)c1ccc(Cl)c(Cl)c1,3.65,16.7,2.48 µM,9.74,16.7 µM,33.3 µM,14.2 µM,39.4 µM,4.24 µM,17.2 µM,4.25 µM,16.7 µM,14.1 µM,36.1 µM,20.1 µM,38 µM,15.4 µM,33.6 µM,14 µM,30.2 µM
O=C(/C=C/C=C/c1ccccc1)c1ccco1,14.3,39.1,16.9 µM,33.5,17.2 µM,40.7 µM,17.9 µM,31.7 µM,11.6 µM,26.3 µM,16.4 µM,53 µM,9.78 µM,24.6 µM,17.1 µM,31.5 µM,15.2 µM,31.9 µM,21.8 µM,60.7 µM
CNCCCNc1nc2ccccc2c2c(=O)c3cc(OC)ccc3sc12,2.25,8.72,1.64 µM,3,12.8 µM,26.8 µM,2.06 µM,4.4 µM,1.52 µM,2.95 µM,1.74 µM,3.45 µM,1.56 µM,3.07 µM,1.7 µM,3.1 µM,1.68 µM,3.18 µM,1.99 µM,4.15 µM
Cc1ccc(-c2nc(/C=N/Nc3cc(C)nc4ccc(Cl)cc34)c(C)o2)cc1,1.61,3.77,1.68 µM,3.05,1.72 µM,3.27 µM,1.76 µM,3.57 µM,0.549 µM,2.08 µM,2.26 µM,5.65 µM,1.45 µM,2.94 µM,1.78 µM,3.29 µM,1.84 µM,3.49 µM,1.71 µM,3.31 µM
COc1ccc(-c2cc3c(C)nc(N)nc3n(C3CCC(OCCO)CC3)c2=O)cn1 (stereo not given),0.0211,0.0925,0.0971 µM and 0.0973 µM,> 6.33,0.0622 µM and 0.0317 µM,0.666 µM and 0.359 µM,0.0882 µM and 0.137 µM,0.874 µM and 1.14 µM,0.106 µM and 0.0974 µM,> 6.21 µM and 5.11 µM,0.0687 µM and 0.0222 µM,> 2.73 µM and 0.299 µM,0.0403 µM and 0.0467 µM,0.289 µM and 0.309 µM,0.131 µM and 0.126 µM,0.552 µM and 0.461 µM,0.318 µM and 0.28 µM,2.84 µM and 3.43 µM,0.0586 µM and 0.0423 µM,0.414 µM and 0.336 µM
CC(=O)N1CCN(CCNC(=O)n2cc(-c3ccncc3)c(-c3cc(O)cc(Cl)c3)n2)CC1,11.7,28.3,8.26 µM,61.9,13 µM,27.1 µM,6.26 µM,20.9 µM,4.25 µM,22.2 µM,13.6 µM,57.6 µM,3.67 µM,17.7 µM,5.73 µM,21.1 µM,21.4 µM,78.6 µM,1.85 µM,4.61 µM
O=C(O)/C(Cc1ccnc2ccccc12)=N\O,,> 100,,> 100,,> 100 µM,,> 100 µM,,> 100 µM,,> 100 µM,,> 100 µM,,> 100 µM,,> 100 µM,,> 100 µM
CCCc1cc(=O)n2c(C(=O)Nc3ccc(F)cc3)c(C(=O)Nc3ccc(F)cc3)sc2n1,46.4,137,17.3 µM,57.7,> 160 µM,> 160 µM,160 µM,> 160 µM,89.7 µM,> 160 µM,30.1 µM,> 160 µM,4.41 µM,13 µM,> 160 µM,> 160 µM,117 µM,> 160 µM,20.8 µM,62.8 µM
N#CC1=C(N)Oc2c(ccc3ccccc23)C1c1cc(=O)oc2ccc(Cl)cc12 (stereo not given),0.805,42.2,1.99 µM,73.4,1.3 µM,61.8 µM,1.95 µM,8.27 µM,0.471 µM,15.8 µM,0.495 µM,> 100 µM,0.217 µM,1.93 µM,0.486 µM,5.57 µM,0.651 µM,> 100 µM,14.4 µM,91.7 µM
